Assay [1] relates to GBM cells (U251, U87 and 081024 cells). The experiment in a line: Binding/internalization of biotinylated peptide, confocal fluorescence microscopy. It is filed as cell-based, human. To be noted: 0.5 mM labelled peptide. On the procedure: FIG. 1 provides fluorescence staining of biotinylated peptide SEQ ID NO. 1 after 6 hours cell exposure (U251 cells and U87 cells) or 5 min cell exposure (081024 oncospheres). Upper right-hand panel: U251 cells, middle right-hand panel, U87 cells, lower right-hand panel, 081024 oncospheres. No peptide negative control (left side of each panel). […] Nuclei appear blue due to DAPI staining. Images were captured using a 100X objective and a Olympus FV3000 confocal microscope
To document binding and/or internalization of the peptides to the cells, biotinylated derivatives of the peptides were synthesised to allow detection by Cy3-conjugated avidin staining using confocal fluorescence microscopy.
U87 and U251 cells were seeded on 8-chamber polystyrene vessel tissue culture-treated glass slides (Falcon). After 24h, cells were incubated with biotinylated peptide (0.5 mM) containing serum free media for 5 min and 6 h. […] Cells were then rinsed and mounted on microscopic slides with DAPI-containing mounting medium for confocal fluorescence imaging analysis.
The ability of SEQ ID NO. 41 to bind and/or enter GBM cells was evaluated. In a first set of experiments, adherent GBM cells and non-adherent GBM cells were exposed to 0.5 mM labelled peptide for 6 h, processed and analysed by confocal immunofluorescence microscopy. […]

The target in assay [2] is T1, recombinant MMP-2 (Homo sapiens, UniProt P08253).
T1 construct: purchased ab139446
T1 sequence (P08253 110-446 limits assumed): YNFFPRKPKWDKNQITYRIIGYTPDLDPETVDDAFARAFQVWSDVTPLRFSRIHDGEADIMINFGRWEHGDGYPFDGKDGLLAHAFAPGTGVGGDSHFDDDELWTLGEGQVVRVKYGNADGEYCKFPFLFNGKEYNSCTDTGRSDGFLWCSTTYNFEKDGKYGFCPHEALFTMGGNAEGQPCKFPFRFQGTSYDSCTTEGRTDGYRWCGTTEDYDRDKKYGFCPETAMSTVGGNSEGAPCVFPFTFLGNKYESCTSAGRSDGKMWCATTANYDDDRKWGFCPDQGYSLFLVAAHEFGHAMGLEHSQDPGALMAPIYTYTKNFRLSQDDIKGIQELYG
In words: MMP-2 Inhibitor Screening Assay Kit (colorimetric). It is filed as biochemical. Conditions: lower % = higher inhibitory activity. The protocol: MMP-2 is an important target for inhibitor screening due to its involvement in cancer growth, angiogenesis, and metastasis. The MMP-2 screening assay was carried out with a commercially available MMP-2 Inhibitor Screening Assay Kit (Colorimetric, Catalog: ab139446) based on the manufacturers protocol. This assay is based on quantification of recombinant MMP-2 activity using a colorimetric assay (MMP-2 degrades a chromogenic substrate). The assay provides NNGH (N-isobutyl-N-(4-methoxyphenylsulfonyl) glycyl hydroxamic acid), a small molecule inhibitor, as a positive control (NNGH). […] Each determination was run in duplicate.
Briefly, MMP Substrate and MMP Inhibitor were warmed to room temperature to thaw DMSO. MMP Inhibitor (NNGH), MMP-2 substrate and MMP-2 enzyme were diluted with assay buffer to required concentration. 20 μL of MMP-2 enzyme and MMP-2 inhibitor (peptides, Chlorotoxin and NNGH) was added, then 50 μL of assay buffer was added and the reaction mixture incubated at 37° C. for 1 h. After incubation, 10 μL of MMP Substrate was added to start reaction. The reactions were continuously read at 412 nm in a microplate reader. Data was recorded at 1 min. time intervals for 10 to 20 min. The data as was plotted as optical density (OD) versus time for each sample. The reaction velocity (V) was obtained in OD/min: determine the slope of a line fit to the linear portion of the data plot using an appropriate routine. Then using the equation above the inhibitor % activity remaining was calculated. The control was without inhibitor.

Assay [3] concerns U87 cells. Conditions: U87, 1 μM, 24h.
Method: (§1) This assay, described in more detail below, is an in vitro surrogate for measurement of the in vivo invasion by tumour cells of their environment.
(§2) The cell invasion assay employs a simplified Boyden chamber-like design that consists of two chambers separated by a filter (an 8 μm polycarbonate (PC) membrane) coated with basement membrane or different extracellular matrix components. The cell suspension is placed in the top chamber and incubated in the presence of test media containing specific chemo-attractants in the bottom chamber. Cells migrate from the top chamber to the bottom of the filter by degrading the coating over the filter pores. Detection of cell invasion is quantified using Calcein AM. Cell dissociation/Calcein AM solution is placed in the bottom chamber to dissociate the migrating cells from the filter. Calcein AM is internalized by the cells, and intracellular-esterases cleave the aceto-methylester (AM) moiety.
(§3) The filter was coated with PathClear® growth factor reduced BME.
(§4) Cell invasion was determined using CultureCoat® 96 Well Medium BME Cell Invasion assay. Briefly, the cells were pre-starved 24h before harvest. Then seeding 25,000 per well of cell in the upper chamber with serum free medium together different concentration of peptide. […] After 24h incubation, the invading cells were measured by Calcein AM and calculated based on standard curve.
Assay [4] relates to U251 cells. Conditions: U251, 1 μM, 24h.
Method: as §1, §2, §3, §4
Assay [5] relates to 081024 oncospheres. Conditions: 081024, 1 μM, 24h.

Consider “Biotin-tyr-gly-gly-phe-leu-arg-arg [SEQ ID NO. 41]”, for which the “binding/entry into GBM cells, Cy3 staining” value in assay [1] (5 minutes exposure, U251, U87 and 081024 cells) is listed as “already internalised”; in assay [1] (6 h exposure), “bright intracellular fluorescence”.
For the compound Chlorotoxin, in assay [2] (1 μM), the “% inhibition (MMP-2 inhibitor screening)” value is listed as 67.94%. The “Invasion Inhibition Index (%)” value came to 39.5% in assay [3], 28.50% in assay [4] and 45.0% in assay [5].
Take `COc1ccc(S(=O)(=O)N(CC(=O)NO)CC(C)C)cc1` [NNGH, N-isobutyl-N-(4-methoxyphenylsulfonyl) glycyl hydroxamic acid, reference compound]: in assay [2] (1.3 μM), the “% inhibition (MMP-2 inhibitor screening)” value is 2.29%.

Values taken from patent US20260001910A1, “PEPTIDES AND USES THEREOF” (PreveCeutical Medical Inc., priority 2021, published 2026).
